# Source: US10538521B2, “Pyrimidine derivative having antimalarial activity” (CARNA BIOSCIENCES, INC., priority 2016, dated 2020)
# pIC50: −log10 of the molar value. Counter-ions that a name gives are not always drawn. Like-named read-outs stand apart in the source and are kept apart here.
# Experiments:
# [1] = system: K1 strain, a drug resistant strain of Plasmodium falciparum; test: In vitro antimalarial assay (p-LDH, Malstat), K1 strain; assay type: cell-based; conditions: read-out: Antimalarial activity (IC50 value), Strain K1
# Text: (§1) For the evaluation of the antimalarial activity of the compound of the present invention, K1 strain, a drug resistant strain of Plasmodium falciparum, and FCR3 strain, a drug sensitive strain thereof, which were generous gift from Professor Kiyoshi Kita of the Graduate School of Medicine and Faculty of Medicine, the University of Tokyo, were used to measure the in vitro antimalarial activity of the compound against those Plasmodium species according to the method established by Otoguro et al. (Otoguro, K., Kohana, A., Manabe, C., Ishiyama, A., Ui, H., Shiomi, K., Yamada, H. & Omura, S.: Potent antimalarial activity of polyether antibiotic, X-206. J. Antibiot., 54: 658-663, (2001)).
# (§2) The parasites were grown based on a slightly modified method from the original method reported by Trager and Jensen (Trager, W. and Jensen, J.: Human malaria parasites in continuous culture, Science, 193: 673-677, (1976)), and those which were maintained and sub-cultured by the method were used. More specifically, in a culture dish, erythrocytes infected with the protozoa, which had been sub-cultured using a RPMI 1640 medium to which 10% human plasma had been added and fresh human erythrocytes, were diluted (hematocrit value: 2 to 5%, parasitaemia: 0.25 to 1%), and were cultured at 37° C. in a mixed gas of 3% O2-4% CO2-93% N2, and continuously cultured while changing the medium and adding fresh erythrocytes at 2- or 3-day intervals.
# (§3) A drug susceptibility test was performed by modifying the method established by Desjardins et al. (Desjardins, R. E., Canfield, C. J., Haynes, D. E. and Chulay, J. D.: Quantitative assessment of antimalarial activity in vitro by a semiautomated microdilution technique. Antimicrob. Agents Chemother., 16: 710-718 (1979)). More specifically, 190 μL of a suspension of protozoa which had been precultured (hematocrit value: 2%, parasitaemia: 0.5 or 1%) and 10 μL of a solution of a test compound (5% DMSO solution) serially diluted so that the final concentration was 12.5 to 0.0001 μM were put in each well of a 96-well plate, and after mixing, the same was cultured for 72 hours in the above mixed gas.
# (§4) For the measurement of the growth of protozoa, the method established by Makler (Makler, M. T., Rise, J. M., Williams, J. A., Bancroft, J. E., Piper, R. C., Gibbins, B. L. and Hinrichs, D. J.: Parasite lactate dehydrogenase as an Assay for Plasmodium falciparum drug sensitivity, Am. J. Med. Hyg., 48: 739-741 (1993)) was modified to colorimetrically determine parasite lactate dehydrogenase (p-LDH) using Malstat reagent (Flow Inc., USA).
# (§5) More specifically, 72 hours after the culture, the 96-well plate was directly frozen at −20° C. for 18 hours and melted at 37° C. to hemolyze the protozoan-infected erythrocytes and destroy the protozoa to prepare a crude enzyme solution. 100 μL of Malstat reagent and 20 μL of the crude enzyme solution were added to and mixed in each well of another 96-well plate, and after reacting for 15 minutes at room temperature, 20 μL of a nitroblue tetrazolium 2 mg/mL phenazine ethosulfate 0.1 mg/mL=1:1 solution was added to the respective wells, and reaction was performed in dark conditions at room temperature for 2 hours.
# (§6) The absorbance of the blue formazan product formed by the reaction was measured at a measurement wavelength of 655 nm by using a microplate reader (Labsystems, Finland) to colorimetrically determine the growth of the protozoa. The 50% growth inhibitory concentration for the protozoa of the compound (IC50 value) was determined based on the concentration-response curve of the compound.
# [2] = system: FCR3 strain, a drug sensitive strain of Plasmodium falciparum; test: In vitro antimalarial assay (p-LDH, Malstat), FCR3 strain; assay type: cell-based; conditions: P. falciparum FCR3 (drug sensitive), 72 h culture, p-LDH readout, read-out: Antimalarial activity (IC50 value), Strain FCR3
# Text: as §1, §2, §3, §4, §5, §6
# [3] = P. falciparum K1 (drug resistant), 72 h culture, p-LDH readout
Compound,"pIC50 [1, 3]",pIC50 [2],"pIC50 ([1]; K1, 72 h)"
"Cc1cc(C)nc(Nc2nc(Nc3ccn4ccnc4c3)cc(N3C[C@@H](C)[C@H](C)C3)n2)c1 (relative stereo) [Example 193, N2-(4,6-dimethylpyridin-2-yl)-6-[trans-3,4-dimethylpyrrolidin-1-yl]-N4-(imidazo[1,2-a]pyridin-7-yl)pyrimidine-2,4-diamine]",> 7.00,> 7.00,
"COc1ccc(Nc2nc(Nc3ccn4ccnc4c3)cc(N3CCOCC3)n2)cn1 [Example 1, N4-(Imidazo[1,2-a]pyridin-7-yl)-N2-(6-methoxypyridin-3-yl)-6-morpholinopyrimidine-2,4-diamine]",> 7.00,> 7.00,
"Cc1cc(C)nc(Nc2nc(Nc3ccn4ccnc4c3)cc(N3CCOCC3)n2)c1 [Example 2, N2-(4,6-dimethylpyridin-2-yl)-N4-(imidazo[1,2-a]pyridin-7-yl)-6-morpholinopyrimidine-2,4-diamine]",> 7.00,> 7.00,
"c1cc(Nc2nc(Nc3ccn4ccnc4c3)cc(N3CCOCC3)n2)ccn1 [Example 3, N4-(imidazo[1,2-a]pyridin-7-yl)-6-morpholino-N2-(pyridin-4-yl)pyrimidine-2,4-diamine dihydrochloride]",,,5.00 to 6.00
"c1cncc(Nc2nc(Nc3ccn4ccnc4c3)cc(N3CCOCC3)n2)c1 [Example 4, N4-(Imidazo[1,2-a]pyridin-7-yl)-6-morpholino-N2-(pyridin-3-yl)pyrimidine-2,4-diamine]",6.00 to 7.00,6.00 to 7.00,
"COc1ncccc1Nc1nc(Nc2ccn3ccnc3c2)cc(N2CCOCC2)n1 [Example 5, N4-(Imidazo[1,2-a]pyridin-7-yl)-N2-(2-methoxypyridin-3-yl)-6-morpholinopyrimidine-2,4-diamine]",5.00 to 6.00,5.00 to 6.00,
"Fc1cncc(Nc2nc(Nc3ccn4ccnc4c3)cc(N3CCOCC3)n2)c1 [Example 6, N2-(5-Fluoropyridin-3-yl)-N 4-(imidazo[1,2-a]pyridin-7-yl)-6-morpholinopyrimidine-2,4-diamine]",6.00 to 7.00,6.00 to 7.00,
"CCOc1ccc(Nc2nc(Nc3ccn4ccnc4c3)cc(N3CCOCC3)n2)cn1 [Example 7, N2-(6-Ethoxypyridin-3-yl)-N4-(imidazo[1,2-a]pyridin-7-yl)-6-morpholinopyrimidine-2,4-diamine]",> 7.00,> 7.00,
"c1ncc(Nc2nc(Nc3ccn4ccnc4c3)cc(N3CCOCC3)n2)cn1 [Example 8, N4-(Imidazo[1,2-a]pyridin-7-yl)-6-morpholino-N2-(pyrimidin-5-yl)pyrimidine-2,4-diamine]",5.00 to 6.00,6.00 to 7.00,
"Cc1cccnc1Nc1nc(Nc2ccn3ccnc3c2)cc(N2CCOCC2)n1 [Example 9, N4-(Imidazo[1,2-a]pyridin-7-yl)-N2-(3-methylpyridin-2-yl)-6-morpholinopyrimidine-2,4-diamine]",6.00 to 7.00,> 7.00,
"Cc1cccc(Nc2nc(Nc3ccn4ccnc4c3)cc(N3CCOCC3)n2)n1 [Example 10, N4-(Imidazo[1,2-a]pyridin-7-yl)-N2-(6-methylpyridin-2-yl)-6-morpholinopyrimidine-2,4-diamine]",> 7.00,> 7.00,
"Fc1ncccc1Nc1nc(Nc2ccn3ccnc3c2)cc(N2CCOCC2)n1 [Example 11, N2-(2-Fluoropyridin-3-yl)-N4-(imidazo[1,2-a]pyridin-7-yl)-6-morpholinopyrimidine-2,4-diamine]",5.00 to 6.00,6.00 to 7.00,
"Fc1ccc(Nc2nc(Nc3ccn4ccnc4c3)cc(N3CCOCC3)n2)cn1 [Example 12, N2-(6-Fluoropyridin-3-yl)-N4-(imidazo[1,2-a]pyridin-7-yl)-6-morpholinopyrimidine-2,4-diamine]",6.00 to 7.00,6.00 to 7.00,
"Fc1ccc(Nc2nc(Nc3ccn4ccnc4c3)cc(N3CCOCC3)n2)nc1 [Example 13, N2-(5-Fluoropyridin-2-yl)-N4-(imidazo[1,2-a]pyridin-7-yl)-6-morpholinopyrimidine-2,4-diamine]",6.00 to 7.00,> 7.00,
"Fc1cccc(Nc2nc(Nc3ccn4ccnc4c3)cc(N3CCOCC3)n2)n1 [Example 14, N2-(6-Fluoropyridin-2-yl)-N4-(imidazo[1,2-a]pyridin-7-yl)-6-morpholinopyrimidine-2,4-diamine]",5.00 to 6.00,6.00 to 7.00,
"CC(C)Oc1ccc(Nc2nc(Nc3ccn4ccnc4c3)cc(N3CCOCC3)n2)cn1 [Example 15, N4-(Imidazo[1,2-a]pyridin-7-yl)-N2-(6-isopropoxypyridin-3-yl)-6-morpholinopyrimidine-2,4-diamine]",> 7.00,> 7.00,
"c1cnc(Nc2nc(Nc3ccn4ccnc4c3)cc(N3CCOCC3)n2)nc1 [Example 16, N4-(Imidazo[1,2-a]pyridin-7-yl)-6-morpholino-N2-(pyrimidin-2-yl)pyrimidine-2,4-diamine]",5.00 to 6.00,,
"Cc1ccnc(Nc2nc(Nc3ccn4ccnc4c3)cc(N3CCOCC3)n2)c1 [Example 17, N4-(Imidazo[1,2-a]pyridin-7-yl)-N2-(4-methylpyridin-2-yl)-6-morpholinopyrimidine-2,4-diamine]",> 7.00,> 7.00,
"Cc1ccc(Nc2nc(Nc3ccn4ccnc4c3)cc(N3CCOCC3)n2)nc1 [Example 18, N4-(Imidazo[1,2-a]pyridin-7-yl)-N2-(5-methylpyridin-2-yl)-6-morpholinopyrimidine-2,4-diamine]",> 7.00,> 7.00,
"COc1cncc(Nc2nc(Nc3ccn4ccnc4c3)cc(N3CCOCC3)n2)c1 [Example 19, N4-(Imidazo[1,2-a]pyridin-7-yl)-N2-(5-methoxypyridin-3-yl)-6-morpholinopyrimidine-2,4-diamine]",6.00 to 7.00,6.00 to 7.00,
"Fc1cccnc1Nc1nc(Nc2ccn3ccnc3c2)cc(N2CCOCC2)n1 [Example 20, N2-(3-Fluoropyridin-2-yl)-N4-(imidazo[1,2-a]pyridin-7-yl)-6-morpholinopyrimidine-2,4-diamine]",6.00 to 7.00,6.00 to 7.00,
"Fc1ccnc(Nc2nc(Nc3ccn4ccnc4c3)cc(N3CCOCC3)n2)c1 [Example 21, N2-(4-Fluoropyridin-2-yl)-N4-(imidazo[1,2-a]pyridin-7-yl)-6-morpholinopyrimidine-2,4-diamine]",6.00 to 7.00,6.00 to 7.00,
"Oc1ccc(Nc2nc(Nc3ccn4ccnc4c3)cc(N3CCOCC3)n2)cn1 [Example 24, 5-(4-(Imidazo[1,2-a]pyridin-7-ylamino)-6-morpholinopyrimidin-2-ylamino)pyridin-2-ol]",5.00 to 6.00,,
"CCOc1ccc(Nc2nc(Nc3ccn4ccnc4c3)cc(N3CCN(C)[C@@H](C)C3)n2)cn1 [Example 52, (S)-6-(3,4-Dimethylpiperazin-1-yl)-N2-(6-ethoxypyridin-3-yl)-N4-(imidazo[1,2-a]pyridin-7-yl) pyrimidine-2,4-diamine]",5.00 to 6.00,,
"CC(C)Oc1ccc(Nc2nc(Nc3ccn4ccnc4c3)cc(N3CCN(C)[C@@H](C)C3)n2)cn1 [Example 56, (S)-6-(3,4-dimethylpiperazin-1-yl)-N4-(imidazo[1,2-a]pyridin-7-yl)-N2-(6-isopropoxypyridin-3-yl)pyrimidine-2,4-diamine]",5.00 to 6.00,,
"CC(C)Oc1ccc(Nc2nc(Nc3ccn4ccnc4c3)cc(N3CCN(C)CC3)n2)cn1 [Example 59, N4-(imidazo[1,2-a]pyridin-7-yl)-N2-(6-isopropoxypyridin-3-yl)-6-(4-methylpiperazin-1-yl) pyrimidine-2,4-diamine]",5.00 to 6.00,,
"C=CCOc1ccc(Nc2nc(Nc3ccn4ccnc4c3)cc(N3CCOCC3)n2)cn1 [Example 76, N2-(6-(allyloxy)pyridin-3-yl)-N4-(imidazo[1,2-a]pyridin-7-yl)-6-morpholinopyrimidine-2,4-diamine]",5.00 to 6.00,,
